Columns and labels:
Format in all cases: in vivo
[1] = tested on: adult flies Musca domestica strain WHO-N; test: Musca domestica test (MUSCDO surface treatment & contact assay); details: 24 hours after contact, read-out: efficacy (mortality); for mortality at 4 mg/m2: surface concentration 4 mg/m^2, 30 min exposure; for mortality at 20 mg/m2: surface concentration 20 mg/m^2, 30 min exposure
In short: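 Percent kill read 24 h post-contact, after adult flies (strain WHO-N) spent 30 min on a glazed tile treated with test solution (acetone, 2 mg/ml, plus 2000 ppm rapeseed oil methyl ester) and dried.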

[2] = tested on: adult mosquitoes Anopheles funestus strain FUMOZ-R; test: Anopheles funestus test (ANPHFU surface treatment & contact assay); details: surface concentration 4 mg/m^2, 30 min exposure, 24 hours after contact, read-out: efficacy (mortality)
Protocol: Anopheles funestus Test (ANPHFU Surface Treatment & Contact Assay) • Solvent: Aceton+2000 ppm rapeseed oil methyl ester (RME)
(§1) In order to produce a sufficient, active ingredient containing solution it is necessary to solve the test compound in the solvent-mix (acetone at 2 mg/ml/RME 2000 ppm). This solution is pipetted onto a glazed tile and after evaporation of the acetone, adult mosquitoes of the species Anopheles funestus strain FUMOZ-R (Hunt et al., Med. Vet. Entomol. 2005 September; 19(3): 271-275) are placed onto the dried surface. The exposure time is 30 minutes.
(§2) Mortality in percent (%) is determined 24 hours after contact of the insects to the treated surface. 100% mortality means that all tested insects are dead, whereas 0% means that no insect died.

[3] = tested on: adult mosquitoes Culex quinquefasciatus strain P00; test: whole plant or invertebrate; details: read-out: efficacy (mortality)
Protocol: Culex quinquefasciatus Test (CULXFA Surface Treatment & Contact Assay) • Solvent: Aceton+2000 ppm rapeseed oil methyl ester (RME)
as §1, with “2 OOOppm).” for “2000 ppm).”, “Culex quinquefasciatus” for “Anopheles funestus”, “P00” for “FUMOZ-R (Hunt et al., Med. Vet. Entomol. 2005 September; 19(3): 271-275)”
as §2

[4] = tested on: adult mosquitoes Aedes aegypti strain MONHEIM; test: Aedes aegypti test (AEDSAE surface treatment & contact assay); details: 24 hours after contact, read-out: efficacy (mortality); for mortality at 4 mg/m2: surface concentration 4 mg/m^2, 30 min exposure; for mortality at 20 mg/m2: surface concentration 20 mg/m^2, 30 min exposure
In short: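 Test compound in acetone (2 mg/ml) with 2000 ppm rapeseed oil methyl ester was dried onto a glazed tile. Adult Aedes aegypti MONHEIM were exposed to the treated surface for 30 minutes. Percent mortality was scored 24 hours after contact.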

[5] = tested on: cattle ticks (Rhipicephalus microplus) strain Parkhurst, SP-resistant; test: Rhipicephalus (Boophilus) microplus dip test; details: 100 ppm, egg deposition after 7 days
Protocol: Rhipicephalus (Boophilus) Microplus—Dip Test
Test animal: cattle ticks (Rhipicephalus microplus) strain Parkhurst, SP-resistant
Solvent: dimethyl sulfoxide
To produce a suitable preparation of active compound, 10 mg of active compound are dissolved in 0.5 mL solvent, and the concentrate is diluted with water to the desired concentration.
This compound solution is pipetted into tubes. 8-10 engorged, adult, female cattle ticks (Rhipicephalus microplus) are placed in perforated tubes. These tubes are immersed in the aqueous compound solution until the ticks are completely moistened. After the liquid has drained off, the ticks are transferred to a filter paper in a plastic tray and stored in a climate chamber.
After 7 days egg deposition of fertile eggs is monitored. Eggs where fertility is not visible are stored in a climate chamber till hatching after about 42 days. An efficacy of 100% means all eggs are infertile; 0% means all eggs are fertile.

[6] = tested on: green peach aphid (Myzus persicae); test: Myzus persicae spray test; details: foliar, 120 h, Chinese cabbage leaf disks, after 5 days
In short: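 Percent mortality read 5 days after spraying, where 100% is total kill and 0% none. The spray contained compound in acetone plus dimethylformamide, diluted with 1000 ppm emulsifier water. It was applied to Brassica pekinensis leaf disks carrying mixed-instar green peach aphids.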

[7] = tested on: brown planthopper (Nilaparvata lugens); test: Nilaparvata lugens spray test; details: 96 h, 100 g/ha, rice plants, after 4 days
Protocol: Nilaparvata lugens—Spray Test • Solvent: 78.0 parts by weight of acetone • 1.5 parts by weight of dimethylformamide • Emulsifier: alkylarylpolyglycol ether
To produce a suitable preparation of active compound, 1 part by weight of active compound is mixed with the stated amount of solvents and is diluted with water, containing an emulsifier concentration of 1000 ppm, to the desired concentration. Further test concentrations are prepared by dilution with emulsifier containing water.
Rice plants (Oryza sativa) are sprayed with a preparation of the active ingredient of the desired concentration and the plants are infested with the brown planthopper (Nilaparvata lugens).
After 4 days mortality in % is determined. 100% means all planthoppers have been killed and 0% means none of the planthoppers have been killed.

[8] = tested on: larvae of the southern green stink bug (Nezara viridula); test: Nezara viridula spray test; details: in Hordeum vulgare, 96 h
In short: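 Mortality (%) of stink bug larvae on treated barley (Hordeum vulgare) was scored 4 days after infestation. Test solutions came from an acetone/DMF concentrate diluted with water containing 1000 ppm emulsifier and were sprayed onto plants before larvae were added.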

Molecule `C[C@H](NC(=O)c1cc(C(F)(F)F)cc(C(F)(F)F)c1)c1ncnn1-c1ncc(C#N)s1` [I-2] has a mortality at 4 mg/m2 [1] of 90 to 100%, a mortality at 20 mg/m2 [1] of 80 to 100% and a mortality at 4 mg/m2 [2] of 80 to 100%. The mortality at 4 mg/m2 [3] was 80 to 100%, the mortality at 4 mg/m2 [4] was 80 to 100% and the mortality at 20 mg/m2 [4] was 80 to 100%. The “efficacy (infertile eggs)” value [5] was 100%.

`Cc1nc([C@H](C)NC(=O)c2cc(C(F)(F)F)cc(C(F)(F)F)c2)n(-c2ncc(C(=O)N(C)CC3CC3)s2)n1` [I-4] showed a mortality at 100 g/ha [6] of 90%, a mortality at 20 mg/m2 [1] of 80 to 100% and a mortality at 100 g/ha [7] of 90%. It also gave a mortality at 20 mg/m2 [4] of 80 to 100%.

Work on `Cc1nc([C@H](C)NC(=O)c2cc(C(F)(F)F)cc(C(F)(F)F)c2)n(-c2ncc(C(=O)N(C)C)s2)n1` [I-5, 2-(5-{(1S)-1-[3,5-bis(trifluoromethyl)benzamido]ethyl}-3-methyl-1H-1,2,4-triazol-1-yl)-N,N-dimethyl-1,3-thiazole-5-carboxamide] yielded a mortality at 100 g/ha [6] of 90%, a mortality at 4 mg/m2 [1] of 90 to 100% and a mortality at 100 g/ha [7] of 100%. For the same molecule, the “efficacy (infertile eggs)” value [5] was 100%.

With `CCN(C)C(=O)c1cnc(-n2nc(C)nc2[C@H](C)NC(=O)c2cc(C(F)(F)F)cc(C(F)(F)F)c2)s1` [I-6] the mortality at 100 g/ha [6] was 100%, the mortality at 4 mg/m2 [1] was 90 to 100% and the mortality at 20 mg/m2 [1] was 80 to 100%. For the same molecule, the mortality at 100 g/ha [7] was 100%, the mortality at 4 mg/m2 [4] was 80 to 100% and the “efficacy (infertile eggs)” value [5] was 100%.

Molecule `Cc1nc([C@H](C)NC(=O)c2cc(C(F)(F)F)cc(C(F)(F)F)c2)n(-c2ncc(C(=O)N(C)CC#N)s2)n1` [I-9] has a mortality at 100 g/ha [6] of 100%, a mortality at 20 mg/m2 [1] of 80 to 100% and a mortality at 100 g/ha [7] of 100%. For the same molecule, the mortality at 100 g/ha [8] was 90%, the mortality at 4 mg/m2 [4] was 80 to 100% and the mortality at 20 mg/m2 [4] was 80 to 100%. For the same molecule, the “efficacy (infertile eggs)” value [5] was 100%.

With `Cc1nc([C@H](C)NC(=O)c2cc(C(F)(F)F)cc(C(F)(F)F)c2)n(-c2ncc(C(N)=O)s2)n1` [I-21, 2-(5-{(1S)-1-[3,5-bis(trifluoromethyl)benzamido]ethyl}-3-methyl-1H-1,2,4-triazol-1-yl)-1,3-thiazole-5-carboxamide] the mortality at 100 g/ha [6] was 100%, the mortality at 4 mg/m2 [1] was 90 to 100% and the mortality at 20 mg/m2 [1] was 80 to 100%. For the same molecule, the mortality at 100 g/ha [8] was 100%, the mortality at 4 mg/m2 [4] was 80 to 100% and the mortality at 20 mg/m2 [4] was 80 to 100%.

— patent US20230065953A1, “NOVEL HETEROARYL-TRIAZOLE COMPOUNDS AS PESTICIDES” (Bayer Aktiengesellschaft, priority 2019, published 2023)
